Molecules are shown by their SMILES.

The target of the first test is human vitronectin receptor αvβ3 (Homo sapiens, UniProt P05106+P06756). As to the kind of experiment: Inhibition of binding of kistrin to human vitronectin receptor (αvβ3 ELISA test, K/VnR).
Sequence of human vitronectin receptor αvβ3 (P06756 31-889 limits assumed): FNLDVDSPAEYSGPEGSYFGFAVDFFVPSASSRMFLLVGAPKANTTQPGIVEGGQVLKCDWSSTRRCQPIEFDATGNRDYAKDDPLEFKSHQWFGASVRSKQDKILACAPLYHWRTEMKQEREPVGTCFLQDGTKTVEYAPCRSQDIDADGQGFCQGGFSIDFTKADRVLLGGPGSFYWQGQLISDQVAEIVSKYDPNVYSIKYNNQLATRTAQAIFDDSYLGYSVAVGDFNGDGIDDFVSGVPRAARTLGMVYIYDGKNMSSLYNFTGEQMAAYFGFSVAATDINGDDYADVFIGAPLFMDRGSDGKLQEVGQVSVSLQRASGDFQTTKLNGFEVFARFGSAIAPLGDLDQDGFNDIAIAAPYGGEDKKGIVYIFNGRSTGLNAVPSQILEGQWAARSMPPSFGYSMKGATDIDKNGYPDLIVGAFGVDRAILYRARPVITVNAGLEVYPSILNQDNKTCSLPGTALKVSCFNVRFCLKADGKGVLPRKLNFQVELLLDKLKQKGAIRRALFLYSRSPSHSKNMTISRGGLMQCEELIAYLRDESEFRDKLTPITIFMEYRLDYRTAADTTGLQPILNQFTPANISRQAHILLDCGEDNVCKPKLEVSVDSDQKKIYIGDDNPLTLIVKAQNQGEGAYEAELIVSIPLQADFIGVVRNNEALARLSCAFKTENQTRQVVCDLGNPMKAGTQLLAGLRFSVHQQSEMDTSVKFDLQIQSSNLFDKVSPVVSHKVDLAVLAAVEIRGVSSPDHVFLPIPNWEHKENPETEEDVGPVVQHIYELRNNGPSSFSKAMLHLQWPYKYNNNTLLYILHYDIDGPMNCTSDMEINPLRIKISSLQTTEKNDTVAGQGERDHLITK
Sequence of human vitronectin receptor αvβ3 (P06756 891-1048 limits assumed): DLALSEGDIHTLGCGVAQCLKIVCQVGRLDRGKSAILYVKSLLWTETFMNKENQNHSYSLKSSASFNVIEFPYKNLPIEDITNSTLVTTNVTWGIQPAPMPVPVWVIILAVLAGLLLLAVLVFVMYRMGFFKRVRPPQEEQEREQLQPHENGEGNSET
Sequence of human vitronectin receptor αvβ3 (P05106 27-788): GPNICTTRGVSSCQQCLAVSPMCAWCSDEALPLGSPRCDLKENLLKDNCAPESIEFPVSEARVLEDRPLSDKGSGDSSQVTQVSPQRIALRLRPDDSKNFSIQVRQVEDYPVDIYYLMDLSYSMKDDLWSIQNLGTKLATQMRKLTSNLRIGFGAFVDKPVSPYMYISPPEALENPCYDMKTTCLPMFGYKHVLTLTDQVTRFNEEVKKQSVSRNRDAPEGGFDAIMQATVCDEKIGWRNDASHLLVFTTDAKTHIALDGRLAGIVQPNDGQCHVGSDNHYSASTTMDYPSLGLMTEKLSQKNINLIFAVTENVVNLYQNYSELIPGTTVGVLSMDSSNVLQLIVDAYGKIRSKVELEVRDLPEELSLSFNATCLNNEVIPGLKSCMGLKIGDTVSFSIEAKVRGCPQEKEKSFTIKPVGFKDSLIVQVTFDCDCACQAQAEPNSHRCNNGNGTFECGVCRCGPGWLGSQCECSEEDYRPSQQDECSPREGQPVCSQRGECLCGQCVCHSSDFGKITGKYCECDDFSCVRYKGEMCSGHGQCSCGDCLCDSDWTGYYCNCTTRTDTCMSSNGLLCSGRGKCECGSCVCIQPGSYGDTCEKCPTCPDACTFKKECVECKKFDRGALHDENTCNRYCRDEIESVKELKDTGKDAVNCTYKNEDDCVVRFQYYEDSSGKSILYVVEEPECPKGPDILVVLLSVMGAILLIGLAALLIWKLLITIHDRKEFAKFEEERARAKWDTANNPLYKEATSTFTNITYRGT
Settings: not given
(In an ELISA, binding on a coated surface is turned into a signal by an enzyme label.)
Usually IC50 stands for the concentration that inhibits the measured activity by half. Read a high IC50 as weaker potency in that assay. In turn, `N=C(N)NCCCn1cnc2c(NC[C@H](NC(=O)OCc3ccccc3)C(=O)O)ncnc21` [Example 16, N^6-(3-(2S-(Benzyloxycarbonylamino)propionic acid))-N^9-(1-(3-guanidinylpropyl))-adenine] showed an IC50 of 540 nM. Still for that read-out and setting: the result for `O=C(N[C@H](Cn1cnc2c(N3CCC(CNC4=NCCN4)CC3)ncnc21)C(=O)O)OCc1ccccc1` [Example 25, 2R-Benzyloxycarbonylamino-3-(6-(4-((4,5-dihydro-1H-imidazol-2-ylamino)-methyl)piperidin-1-yl)purin-9-yl)propionic Acid] reads 345 nM; that for `N=C(N)NCCCCNc1ncnc2c1ncn2C[C@H](NC(=O)OCc1ccccc1)C(=O)O` [Example 2, N^6-(1-(4-Guanidinobutyl))-N^9-(3-(2S-(benzyloxycarbonylamino)propionic acid))-adenine], 700 nM; that for `N=C(N)NCC1CCN(c2ncnc3c2ncn3C[C@H](NC(=O)OCc2ccccc2)C(=O)O)CC1` [Example 26, 2S-Benzyloxycarbonylamino-3-(6-(4-(guanidinomethyl)piperidin-1-yl)purin-9-yl)propionic Acid], 360 nM. With `O=C(N[C@@H](Cn1cnc2c(N3CCC(C(=O)NC4=NCCCN4)CC3)ncnc21)C(=O)O)OCc1ccccc1` [Example 19, 2S-Benzyloxycarbonylamino-3-(6-(4-(1,4,5,6-tetrahydropyrimidin-2-yl-carbamoyl)piperidin-1-yl)purin-9-yl)propionic acid], the 50% inhibitory concentration (IC50) stood at 4 nM. Same read-out and setting: as for `N=C(N)NCCCCCn1cnc2c(NC[C@H](NC(=O)OCc3ccccc3)C(=O)O)ncnc21` [Example 14, N^6-(3-(2S-(Benzyloxycarbonylamino)propionic acid))-N^9-(1-(5-guanidinyl-pentyl))-adenine], the figure is 650 nM; as for `N=C(N)NCCCNc1ncnc2c1ncn2C[C@H](NC(=O)OCc1ccccc1)C(=O)O` [Example 3, N^6-(1-(3-Guanidinopropyl))-N^9-(3-(2S-(benzyloxycarbonylamino)propionic acid))-adenine], 2200 nM; as for `O=C(N[C@@H](Cn1cnc2c(NCCCCNc3nc4ccccc4[nH]3)ncnc21)C(=O)O)OCc1ccccc1` [Example 23, 3-(6-((4-(Benzimidazol-2-ylamino)butyl)amino)purin-9-yl)-2S-benzyloxycarbonylaminopropionic Acid], 160 nM. In turn, `O=C(N[C@@H](Cn1cnc2c(N3CCC(CNC4=NCCN4)CC3)ncnc21)C(=O)O)OCc1ccccc1` [Example 24, 2S-Benzyloxycarbonylamino-3-(6-(4-((4,5-dihydro-1H-imidazol-2-ylamino)-methyl)piperidin-1-yl)purin-9-yl)propionic Acid] displayed an IC50 of 52 nM. In the case of `N=C(N)NCCCCn1cnc2c(NC[C@H](NC(=O)OCc3ccccc3)C(=O)O)ncnc21` [Example 17, N^6-(3-(2S-(Benzyloxycarbonylamino)propionic acid))-^9-(1-(4guanidinyl-butyl))-adenine], the IC50 worked out at 170 nM. Take `O=C(N[C@@H](CNc1ncnc2c1ncn2CCCCNC1=NCCN1)C(=O)O)OCc1ccccc1` [Example 18]: the 50% inhibitory concentration (IC50) amounted to 75 nM.

Compound `N=C(N)NCCCn1cnc2c(NCC[C@H](NC(=O)OCc3ccccc3)C(=O)O)ncnc21` [Example 12, N^6-(4-(2S-(Benzyloxycarbonylamino)butyric acid))-N^9-(1-(3-guanidinylpropyl))-adenine] came in with an IC50 of 580 nM. For `N=C(N)NCCCCCNc1ncnc2c1ncn2C[C@H](NC(=O)OCc1ccccc1)C(=O)O` [Example 1, N^6-(1-(5-Guanidinopentyl))-N^9-(3-(2S-(benzyloxycarbonylamino)propionic acid))-adenine], the IC50 amounted to 1100 nM.

`O=C(N[C@@H](CCNc1ncnc2c1ncn2CCCNC1=NCCN1)C(=O)O)OCc1ccccc1` [Example 13, N^6-(4-(2S-(Benzyloxycarbonylamino)butyric acid))-N^9-(1-(3-(4,5-dihydro-1H-imidazol-2-ylamino)propyl))-adenine] registered an IC50 of 190 nM. Consider `O=C(N[C@@H](CNc1ncnc2c1ncn2CCCCCNC1=NCCN1)C(=O)O)OCc1ccccc1` [Example 15, N^6-(3-(2S-(Benzyloxycarbonylamino)propionic acid))-N^9-(1-(5-(4,5-dihydro-1H-imidazol-2-ylamino)pentyl))-adenine], for which the IC50 worked out at 210 nM. With `O=C(N[C@@H](Cn1cnc2c(NCCCCNC3=NCCN3)ncnc21)C(=O)O)OCc1ccccc1` [Example 4, N^6-(1-(4-(4,5-Dihydro-1H-imidazol-2-ylamino)butyl))-N^9-(3-(2S-(benzyloxycarbonylamino)propionic acid))-adenine], the IC50 was 150 nM.

The test is the same for the next values; noted with them: 10 μM test compound.
As for `NCCCCCn1cnc2c(NC[C@H](NC(=O)OCc3ccccc3)C(=O)O)ncnc21` [Example 14c, N^6-(3-(2S-(Benzyloxycarbonylamino)propionic acid))-N^9-(1-(5-amino-pentyl))-adenine], the “K/VnR Inhibition at 10 μM (in %)” value turned out to be 22%.

Take `NCCCn1cnc2c(NC[C@H](NC(=O)OCc3ccccc3)C(=O)O)ncnc21` [Example 16b, N^6-(3-(2S-(Benzyloxycarbonylamino)propionic acid))-N^9-(1-(3-amino-propyl))-adenine]: the “K/VnR Inhibition at 10 μM (in %)” value turned out to be 29%.

The values are drawn from US6723727B1, “Substituted purine derivatives, processes for their preparation, their use, and compositions comprising them” (Hoechst Aktiengesellschaft, priority 1996, dated 2004).
